Broadly, the IC50 is the concentration needed to halve the response being measured.

Read-outs that look alike come from different tables or passages of the source.

The record followed here is US12404295B2, “(Hetero)aryl-methyl-thio-beta-D-galactopyranoside derivatives” (Idorsia Pharmaceuticals Ltd, priority 2019, dated 2025).

The target of one assay is human Gal-3 (hGal-3) (Homo sapiens (Human), UniProt P17931). In words: competitive binding assay: biotinylated hGal-3 binding to microplate-adsorbed asialofetuin (ASF). The gist of the method: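 3 h, 4 °C binding step; cold buffer wash; streptavidin-HRP 80 ng/mL, 1 h, 4 °C; ABTS colorimetric read-out. Compounds diluted serially in DMSO. IC50 reported as mean of repeat runs.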
Sequence of human Gal-3 (hGal-3) (P17931 whole entry): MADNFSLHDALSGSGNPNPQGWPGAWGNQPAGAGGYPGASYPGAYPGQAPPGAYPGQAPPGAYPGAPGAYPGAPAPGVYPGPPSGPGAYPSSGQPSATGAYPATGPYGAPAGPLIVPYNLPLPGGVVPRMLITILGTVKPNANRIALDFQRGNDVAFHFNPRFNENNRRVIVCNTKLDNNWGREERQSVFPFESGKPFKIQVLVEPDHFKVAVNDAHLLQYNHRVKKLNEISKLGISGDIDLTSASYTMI

A further assay concerns the target human Gal-1 (hGal-1) (Homo sapiens (Human), UniProt P09382). Briefly: competitive binding assay: biotinylated hGal-1 binding to microplate-adsorbed asialofetuin (ASF). The following applies: Table 15; read-out: IC50 (Galectin-1 inhibition). Put shortly: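 Spectrophotometric competition readout: after compound and biotinylated hGal-1 (300-1000 ng/mL) sit 3 h at 4° C on adsorbed asialofetuin, streptavidin-peroxidase (1 h, 4° C) and ABTS reveal residual binding. Reported IC50 values are means of repeat runs.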

Setting [1] is: Gal-3 inhibition, binding of biotinylated hGal-3 to ASF, mean values, read-out: IC50.
Setting [2] is: Table 5, read-out: IC50 (Gal-3 inhibition).

Sequence of human Gal-1 (hGal-1) (P09382 whole entry): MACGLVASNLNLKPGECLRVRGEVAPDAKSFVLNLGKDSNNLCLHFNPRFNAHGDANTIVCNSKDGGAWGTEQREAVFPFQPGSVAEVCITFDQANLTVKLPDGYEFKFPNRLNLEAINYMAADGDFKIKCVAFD

Take `CS(=O)(=O)N1CCC(O)([C@H](S[C@@H]2O[C@H](CO)[C@H](O)[C@H](n3cc(-c4cc(F)c(F)c(F)c4)nn3)[C@H]2O)c2ccccc2C(F)(F)F)CC1` [Example 2.47.112R., (2S,3R,4S,5R,6R)-2-(((R)-(4-Hydroxy-1-(methylsulfonyl)piperidin-4-yl)(2-(trifluoromethyl)phenyl)methyl)thio)-6-(hydroxymethyl)-4-(4-(3,4,5-trifluorophenyl)-1H-1,2,3-triazol-1-yl)tetrahydro-2H-pyran-3,5-diol]: the figures for the IC50 on human Gal-3 (hGal-3) (setting [1]) and at human Gal-1 (hGal-1) were 30 nM and 120 nM, respectively.

For the molecule `CO[C@@H]1[C@@H](n2cc(-c3cc(F)c(F)c(F)c3)nn2)[C@@H](O)[C@@H](CO)O[C@H]1SC(c1c(C)cnn1C)C1(O)CCC(F)(F)CC1` (stereo partly drawn) [Example 2.44.136.I., (2R,3R,4S,5R,6S)-6-(((4,4-Difluoro-1-hydroxycyclohexyl)(1,4-dimethyl-1H-pyrazol-5-yl)methyl)thio)-2-(hydroxymethyl)-5-methoxy-4-(4-(3,4,5-trifluorophenyl)-1H-1,2,3-triazol-1-yl)tetrahydro-2H-pyran-3-ol], the IC50 on human Gal-3 (hGal-3) (Table 10, 2-OMe-Gal inhibitors, read-out: IC50 (Gal-3 inhibition)) amounted to 420 nM; at human Gal-1 (hGal-1), 2530 nM.

As for `OC[C@H]1O[C@@H](S[C@H](c2ccccc2C(F)(F)F)C2(O)CCC(F)(F)CC2)[C@H](O)[C@@H](n2cc(-c3cc(F)c(F)c(F)c3)nn2)[C@H]1O` [Example 2.44.112R., (2S,3R,4S,5R,6R)-2-(((R)-(4,4-Difluoro-1-hydroxycyclohexyl)(2-(trifluoromethyl)phenyl)methyl)thio)-6-(hydroxymethyl)-4-(4-(3,4,5-trifluorophenyl)-1H-1,2,3-triazol-1-yl)tetrahydro-2H-pyran-3,5-diol], the IC50 is 80 nM at human Gal-3 (hGal-3) (setting [2]) and 770 nM on human Gal-1 (hGal-1).

With `CO[C@@H]1[C@@H](n2cc(-c3cc(F)c(F)c(F)c3)nn2)[C@@H](O)[C@@H](CO)O[C@H]1SC(c1nccc(Cl)c1C)C1(O)CCC(F)(F)CC1` (stereo partly drawn) [Example 2.44.141.I., (2R,3R,4S,5R,6S)-6-(((4-Chloro-3-methylpyridin-2-yl)(4,4-difluoro-1-hydroxycyclohexyl)methyl)thio)-2-(hydroxymethyl)-5-methoxy-4-(4-(3,4,5-trifluorophenyl)-1H-1,2,3-triazol-1-yl)tetrahydro-2H-pyran-3-ol], the IC50 at human Gal-3 (hGal-3) (Table 11, read-out: IC50 (Gal-3 inhibition)) came out at 150 nM; on human Gal-1 (hGal-1), 860 nM.

For the molecule `OC[C@H]1O[C@@H](S[C@@H](c2nccnc2Cl)C2(O)CCC(F)(F)CC2)[C@H](O)[C@@H](n2cc(-c3cc(F)c(F)c(F)c3)nn2)[C@H]1O` [Example 2.44.133S., (2S,3R,4S,5R,6R)-2-(((S)-(3-Chloropyrazin-2-yl)(4,4-difluoro-1-hydroxycyclohexyl)methyl)thio)-6-(hydroxymethyl)-4-(4-(3,4,5-trifluorophenyl)-1H-1,2,3-triazol-1-yl)tetrahydro-2H-pyran-3,5-diol], the results for the 50% inhibitory concentration (IC50) at human Gal-3 (hGal-3) (setting [1]) and at human Gal-1 (hGal-1) were 1830 nM and 15800 nM, respectively.

Turning to `CCO[C@@H]1[C@@H](n2cc(-c3cc(F)c(F)c(F)c3)nn2)[C@@H](O)[C@@H](CO)O[C@H]1S[C@@H](c1ncccc1C)C1(O)CCC(F)(F)CC1` [Example 2.44.126S.II., (2R,3R,4S,5R,6S)-6-(((S)-(4,4-Difluoro-1-hydroxycyclohexyl)(3-methylpyridin-2-yl)methyl)thio)-5-ethoxy-2-(hydroxymethyl)-4-(4-(3,4,5-trifluorophenyl)-1H-1,2,3-triazol-1-yl)tetrahydro-2H-pyran-3-ol], the IC50 at human Gal-3 (hGal-3) (setting [1]) was found to be 980 nM; at human Gal-1 (hGal-1), 24300 nM.

With “(2S,3R,4S,5R,6R)-2-(((S)-((R)-4-Hydroxy-2,2-dimethyltetrahydro-2H-pyran-4-yl)(2-(trifluoromethyl)phenyl)methyl)thio)-6-(hydroxymethyl)-4-(4-(3,4,5-trifluorophenyl)-1H-1,2,3-triazol-1-yl)tetrahydro-2H-pyran-3,5-diol [Example 2.43.102SR.]”, the IC50 was 3900 nM at human Gal-3 (hGal-3) (setting [2]) and 55000 nM at human Gal-1 (hGal-1).
